Measurements from patent US7612064B2, “Sulfopyrroles” (Takeda Pharmaceutical Company Limited, priority 2003, dated 2009).

Tests used:
HeLa = test: MTS proliferation assay; assay type: cell-based, human; conditions: 72 h
Method: (§1) The assay is performed in 96 well tissue culture plates. […] The test compounds are added in 20 μl complete medium containing max 5% DMSO. The final compound concentrations in the assays are 10 μM, 3 μM, 1 μM and 0.3 μM, respectively. The assay plates are incubated for 72 h at culture conditions. The MTS reagent is prepared according to the manufacturer's protocol (Promega G1111). 20 μl MTS reagent are added to each well, the assay plates are quickly spun and incubated for another 3 h at culture conditions. Subsequently, the plates are shortly shacked and absorption measured with a microplate-reader at 492 nm.

Jurkat = test: MTS proliferation assay; assay type: cell-based, human; conditions: 72 h
Method: as §1

MRC5 = test: MTS proliferation assay; assay type: cell-based; conditions: MRC5, 72 h
Method: as §1

[1] = Hoechst 33342 nuclear staining; assay type: cell-based; conditions: 24 h or 48 h incubation; for Hoechst 33342 nuclear staining score, HeLa: HeLa cells; for Hoechst 33342 nuclear staining score, Jurkat: Jurkat cells;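 for all read-outs here: apoptotic nuclei scored 0 none 1 weak under 50% of cells 2 strong over 50% of cells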
Method: This assay is performed in 96 well tissue culture plates. Appropriate number of cells (adherent cells: 3-5*10^3, suspension cells: 8-10*10^3) are being seeded out in 80 μl complete medium. Adherent cells are incubated for 24 h for proper spreading out before addition of test compounds while suspension cells are immediately treated with test compounds after seeding out. The test compounds are added in 20 μl complete medium containing max 5% DMSO. […] […] The assay plates are then further incubated for 30 min and subsequently analyzed with a standard inverted fluorescence microscope.
The readout allows the determination of the fraction of apoptotic nuclei as well as other morphological criteria specific for apoptosis as a function of the treatment. The following scores are used: 0 relating to no activity, 1 relating to weak activity comprising less than 50% of the cells and score 2 relating to strong activity comprising more than 50% of the cells.

[2] = conc 0.1 (final concentrations in μM)
[3] = conc 0.3 (final concentrations in μM)
[4] = conc 1 (final concentrations in μM)
[5] = conc 3 (final concentrations in μM)

| Structure (SMILES) | IC50 (HeLa) | IC50 (Jurkat) | IC50 (MRC5) | IC50 (HeLa; Homo sapiens) | IC50 (Jurkat; Homo sapiens) | IC50 (MRC5; Homo sapiens) | Hoechst 33342 nuclear staining score, HeLa [1, 2] | Hoechst 33342 nuclear staining score, HeLa [1, 3] | Hoechst 33342 nuclear staining score, HeLa [1, 4] | Hoechst 33342 nuclear staining score, HeLa [1, 5] | Hoechst 33342 nuclear staining score, Jurkat [1, 2] | Hoechst 33342 nuclear staining score, Jurkat [1, 3] | Hoechst 33342 nuclear staining score, Jurkat [1, 4] | Hoechst 33342 nuclear staining score, Jurkat [1, 5] |
| --- | --- | --- | --- | --- | --- | --- | --- | --- | --- | --- | --- | --- | --- | --- |
| COc1cc(-c2cc(CNCCCN3CCN(C)CC3)cn2S(=O)(=O)c2ccc(C)cc2)cc(OC)c1OC [Example 3] | > 1000 nM | > 1000 nM | > 1000 nM |  |  |  |  |  |  |  |  |  |  |  |
| CN1CCN(CCCNCc2cc(-c3ccc4c(c3)OCO4)n(S(=O)(=O)c3cccc(Cl)c3)c2)CC1 [Example 4, 1-(m-Chlorobenzenesulfonyl)-2-(3,4-methylenedioxyphenyl)-4-(N-[3-{4-methylpiperazinyl}-propyl]-aminomethyl)-pyrrole] | > 1000 nM | > 1000 nM | > 1000 nM |  |  |  |  |  |  |  |  |  |  |  |
| NC(=O)c1ccc(-c2cc(-c3ccc4c(c3)OCO4)n(S(=O)(=O)c3cccc(Cl)c3)c2)cc1 [Example 5, p-(1-[m-chlorobenzenesulfonyl]-2-[3,4-methylenedioxyphenyl]-4pyrrolyl)-benzamide] |  |  |  | > 1000 nM | > 1000 nM | > 1000 nM |  |  |  |  |  |  |  |  |
| Cc1ccc(S(=O)(=O)n2cc(CNCCCN3CCN(C)CC3)cc2-c2ccc3c(c2)OCO3)cc1 [Example 12] | > 1000 nM | > 1000 nM | > 1000 nM |  |  |  | 0 | 0 | 0 | 0 | 0 | 0 | 0 | 0 |
| Cc1ccc(S(=O)(=O)n2cc(CNc3ccc(N4CCOCC4)cc3)cc2-c2ccc3c(c2)OCO3)cc1.Cl [Example 14] | > 1000 nM | > 1000 nM | > 1000 nM |  |  |  | 0 | 0 | 0 | 2 (strong activity comprising more than 50% of the cells) | 0 | 0 | 0 | 2 (strong activity comprising more than 50% of the cells) |
| CCN1CCN(CCNCc2cc(-c3ccc4c(c3)OCO4)n(S(=O)(=O)c3ccc(C)cc3)c2)CC1 [Example 15] | > 1000 nM | > 1000 nM | > 1000 nM |  |  |  | 0 | 0 | 0 | 0 | 0 | 0 | 0 | 0 |
| Cc1ccc(S(=O)(=O)n2cc(CNCCN3CCN(Cc4ccccc4)CC3)cc2-c2ccc3c(c2)OCO3)cc1 [Example 16] | > 1000 nM | > 1000 nM | > 1000 nM |  |  |  | 0 | 0 | 0 | 1 (weak activity comprising less than 50% of the cells) | 0 | 0 | 0 | 0 |
| Cc1ccc(S(=O)(=O)n2cc(CNCCN3CCCC3)cc2-c2ccc3c(c2)OCO3)cc1 [Example 17] | > 1000 nM | > 1000 nM | > 1000 nM |  |  |  | 0 | 0 | 0 | 0 | 0 | 0 | 0 | 0 |
